ChEMBL document CHEMBL1201862, “PubChem BioAssay data set” (2004)
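Tested at 5 concentrations; 48 h exposure; 96-well plates; endpoints linearly interpolated, else capped at highest concentration. GI50: concentration for 50% inhibition of growth.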 Active and inactive are the calls of the source. Rule as the data show it: active = GI50 up to about 1.1 µM and inactive = higher.

Experiments:
Assay in all cases: inhibition of tumour cell growth, NCI panel, 48 h
SN12C = tested on: SN12C
SNB-75 = tested on: SNB-75
RPMI-8226 = tested on: RPMI-8226
OVCAR-4 = tested on: OVCAR-4
SNB-19 = tested on: SNB-19
ACHN = tested on: ACHN
HOP-18 = tested on: HOP-18
NCI-H522 = tested on: NCI-H522
KM12 = tested on: KM12
M14 = tested on: M14
SK-MEL-28 = tested on: SK-MEL-28
NCI-H226 = tested on: NCI-H226
EKVX = tested on: EKVX
RXF 393 = tested on: RXF 393
SR = tested on: SR
SF-295 = tested on: SF-295
SK-MEL-5 = tested on: SK-MEL-5
IGROV-1 = tested on: IGROV-1
CCRF-CEM = tested on: CCRF-CEM
786-0 = tested on: 786-0
OVCAR-8 = tested on: OVCAR-8
LXFL 529 = tested on: LXFL 529
OVCAR-5 = tested on: OVCAR-5
SF-268 = tested on: SF-268
LOX IMVI = tested on: LOX IMVI
UACC-62 = tested on: UACC-62
A549 = tested on: A549
HCT-116 = tested on: HCT-116
NCI-H23 = tested on: NCI-H23
HT-29 = tested on: HT-29
HL-60 = tested on: HL-60
SNB-78 = tested on: SNB-78
MOLT-4 = tested on: MOLT-4
HOP-92 = tested on: HOP-92
KM-20L2 = tested on: KM-20L2
NCI-H460 = tested on: NCI-H460
A498 = tested on: A498
DMS-273 = tested on: DMS-273
M19-MEL = tested on: M19-MEL
UACC-257 = tested on: UACC-257
HOP-62 = tested on: HOP-62
COLO 205 = tested on: COLO 205
SW-620 = tested on: SW-620
HCT-15 = tested on: HCT-15
DMS-114 = tested on: DMS-114
U-251 = tested on: U-251
K562 = tested on: K562
DLD-1 = tested on: DLD-1
SF-539 = tested on: SF-539
Malme-3M = tested on: Malme-3M
CAKI-1 = tested on: CAKI-1
HCC 2998 = tested on: HCC 2998
OVCAR-3 = tested on: OVCAR-3

Compound: CNC(=S)N(C)C(=S)Nn1c(=O)c(C)nn(C)c1=S
- GI50 (SN12C): > 100 µM (inactive)
- GI50 (SNB-75): > 100 µM (inactive)
- GI50 (RPMI-8226): > 100 µM (inactive)
- GI50 (OVCAR-4): > 100 µM (inactive)
- GI50 (SNB-19): > 100 µM (inactive)
- GI50 (ACHN): > 100 µM (inactive)
- GI50 (HOP-18): > 100 µM (inactive)
- GI50 (NCI-H522): > 100 µM (inactive)
- GI50 (KM12): > 100 µM (inactive)
- GI50 (M14): > 100 µM (inactive)
- GI50 (SK-MEL-28): > 100 µM (inactive)
- GI50 (NCI-H226): > 100 µM (inactive)
- GI50 (EKVX): > 100 µM (inactive)
- GI50 (RXF 393): > 100 µM (inactive)
- GI50 (SR): > 100 µM (inactive)
- GI50 (SF-295): > 100 µM (inactive)
- GI50 (SK-MEL-5): > 100 µM (inactive)
- GI50 (IGROV-1): > 100 µM (inactive)
- GI50 (CCRF-CEM): > 100 µM (inactive)
- GI50 (786-0): > 100 µM (inactive)
- GI50 (OVCAR-8): > 100 µM (inactive)
- GI50 (LXFL 529): > 100 µM (inactive)
- GI50 (OVCAR-5): > 100 µM (inactive)
- GI50 (SF-268): > 100 µM (inactive)
- GI50 (LOX IMVI): > 100 µM (inactive)
- GI50 (UACC-62): > 100 µM (inactive)
- GI50 (A549): > 100 µM (inactive)
- GI50 (HCT-116): > 100 µM (inactive)
- GI50 (NCI-H23): > 100 µM (inactive)
- GI50 (HT-29): > 100 µM (inactive)
- GI50 (HL-60): > 100 µM (inactive)
- GI50 (SNB-78): > 100 µM (inactive)
- GI50 (MOLT-4): > 100 µM (inactive)
- GI50 (HOP-92): > 100 µM (inactive)
- GI50 (KM-20L2): > 100 µM (inactive)
- GI50 (NCI-H460): > 100 µM (inactive)
- GI50 (A498): > 100 µM (inactive)
- GI50 (DMS-273): > 100 µM (inactive)
- GI50 (M19-MEL): > 100 µM (inactive)
- GI50 (UACC-257): > 100 µM (inactive)
- GI50 (HOP-62): > 100 µM (inactive)
- GI50 (COLO 205): > 100 µM (inactive)
- GI50 (SW-620): > 100 µM (inactive)
- GI50 (HCT-15): > 100 µM
- GI50 (DMS-114): > 100 µM (inactive)
- GI50 (U-251): > 100 µM (inactive)
- GI50 (K562): > 100 µM (inactive)
- GI50 (DLD-1): > 100 µM (inactive)
- GI50 (SF-539): > 100 µM (inactive)

Compound: CC[n+]1c(-c2ccccc2)c2cc(N)ccc2c2ccc(N)cc21
- GI50 (Malme-3M): 2.24 µM (inactive)
- GI50 (SN12C): 2.51 µM (inactive)
- GI50 (OVCAR-4): 6.68 µM (inactive)
- GI50 (ACHN): 22.1 µM (inactive)
- GI50 (HOP-18): 3.59 µM (inactive)
- GI50 (CAKI-1): 11.8 µM (inactive)
- GI50 (KM12): 2.95 µM (inactive)
- GI50 (SF-295): 3 µM (inactive)
- GI50 (IGROV-1): 1.42 µM (inactive)
- GI50 (LXFL 529): 0.668 µM (active)
- GI50 (OVCAR-5): 29.6 µM (inactive)
- GI50 (UACC-62): 1.52 µM (inactive)
- GI50 (A549): 9.57 µM (inactive)
- GI50 (HCT-116): 2.79 µM (inactive)
- GI50 (NCI-H23): 1.31 µM (inactive)
- GI50 (HL-60): 4.3 µM (inactive)
- GI50 (HCC 2998): 2.67 µM (inactive)
- GI50 (OVCAR-3): 3.06 µM (inactive)
- GI50 (MOLT-4): 1.64 µM (inactive)
- GI50 (KM-20L2): 3.91 µM (inactive)
- GI50 (NCI-H460): 3.3 µM (inactive)
- GI50 (DMS-273): 0.481 µM (active)
- GI50 (M19-MEL): 1.88 µM (inactive)
- GI50 (UACC-257): 2.65 µM (inactive)
- GI50 (COLO 205): 2.12 µM (inactive)
- GI50 (SW-620): 2.3 µM (inactive)
- GI50 (DMS-114): 1.29 µM (inactive)
- GI50 (K562): 2.35 µM (inactive)
- GI50 (SF-539): 1.48 µM (inactive)
